Results taken from patent US9468661B2, “Pyrrolidine derivatives and their use as complement pathway modulators” (priority 2012, dated 2016).

target: human factor D (Homo sapiens (Human), UniProt P00746); assay: biochemical; type: biochemical; conditions: Factor D inhibition data using Method 1; recombinant human factor D 10 nM, substrate Z-Lys-thiobenzyl, fluorescence; read-out: IC50
Protocol: Human Complement Factor D Assay: Method 1
Recombinant human factor D (expressed in E. coli and purified using standard methods) at 10 nM concentration is incubated with test compound at various concentrations for 1 hour at room temperature in 0.1 M Hepes buffer, pH 7.5, containing 1 mM MgCl2, 1 M NaCl and 0.05% CHAPS. A synthetic substrate Z-Lys-thiobenzyl and 2,4-dinitrobenzenesulfonyl-fluoresceine are added to final concentrations of 200 μM and 25 μM, respectively. The increase in fluorescence is recorded at excitation of 485 nm and emission at 535 nm in a microplate spectrofluorimeter. IC50 values are calculated from percentage of inhibition of complement factor D-activity as a function of test compound concentration.

Chain of human factor D (P00746 26-253): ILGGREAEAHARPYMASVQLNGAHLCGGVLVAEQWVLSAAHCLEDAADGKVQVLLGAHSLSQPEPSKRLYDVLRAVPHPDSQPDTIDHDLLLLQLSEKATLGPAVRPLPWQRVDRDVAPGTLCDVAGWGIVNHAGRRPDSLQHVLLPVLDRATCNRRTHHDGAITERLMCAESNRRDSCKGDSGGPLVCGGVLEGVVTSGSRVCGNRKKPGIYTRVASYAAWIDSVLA

Structure (SMILES) | IC50
CC(=O)c1nn(CC(=O)N2[C@@H]3C[C@@H]3C[C@H]2C(=O)NCC2CC(C)C2)c2cnccc12 (stereo partly drawn) [Example 7, (1R,3S,5R)-2-[2-(3-Acetyl-pyrazolo[3,4-c]pyridin-1-yl)-acetyl]-2-aza-bicyclo[3.1.0] hexane-3-carboxylic acid (3-methyl-cyclobutylmethyl)-amide] | 259 nM
NC(=O)c1nn(CC(=O)N2[C@@H]3C[C@@H]3C[C@H]2C(=O)NC[C@H]2CC2(Cl)Cl)c2cc(F)c(F)cc12 [Example 96, 1-(2-{(1R,3S,5R)-3-[((R)-2,2-Dichloro-cyclopropylmethyl)-carbamoyl]-2-aza-bicyclo[3.1.0]hex-2-yl}-2-oxo-ethyl)-5,6-difluoro-1H-indazole-3-carboxylic acid amide] | 307 nM
CC(=O)c1nn(CC(=O)N2[C@@H]3C[C@@H]3C[C@H]2C(=O)NCC2CCC3(CCC3)CC2)c2cnccc12 [Example 3, (1R,3S,5R)-2-[2-(3-Acetyl-pyrazolo[3,4-c]pyridin-1-yl)-acetyl]-2-aza-bicyclo[3.1.0] hexane-3-carboxylic acid (spiro[3.5]non-7-ylmethyl)-amide] | 1350 nM
CC(=O)c1nn(CC(=O)N2[C@@H]3C[C@@H]3C[C@H]2C(=O)NC[C@@H]2C(C)(C)C2(Cl)Cl)c2ccc(OCc3ncccn3)cc12 [Example 103, (1R,3S,5R)-2-{2-[3-Acetyl-5-(pyrimidin-2-ylmethoxy)-indazol-1-yl]-acetyl}-2-aza-bicyclo[3.1.0] hexane-3-carboxylic acid ((S)-2,2-dichloro-3,3-dimethyl-cyclopropylmethyl)-amide] | 70 nM
CC1CCCC(CNC(=O)[C@@H]2C[C@H]3C[C@H]3N2C(=O)Cn2nc(C(N)=O)c3ccncc32)C1 (single isomer, unassigned; dia 3) [Example 117] | 307 nM
CO[C@H]1[C@@H](C(=O)NC[C@H]2CC2(Cl)Cl)N(C(=O)Cn2nc(C(N)=O)c3ccc(C)cc32)C[C@@H]1F [Example 48, 1-(2-{(2S,3S,4S)-2-[((R)-2,2-Dichloro-cyclopropylmethyl)-carbamoyl]-4-fluoro-3-methoxy-pyrrolidin-1-yl}-2-oxo-ethyl)-6-methyl-1H-indazole-3-carboxylic acid amide] | 27 nM
CCc1cc2c(C(N)=O)nn(CC(=O)N3[C@@H]4C[C@@H]4C[C@H]3C(=O)N[C@H](C)[C@H]3CC3(Cl)Cl)c2cn1 [Example 39, 1-(2-{(1R,3S,5R)-3-[(R)-1-((R)-2,2-Dichloro-cyclopropyl)-ethylcarbamoyl]-2-aza-bicyclo[3.1.0]hex-2-yl}-2-oxo-ethyl)-5-ethyl-1H-pyrazolo[3,4-c] pyridine-3-carboxylic acid amide] | 27 nM
C[C@@H](NC(=O)[C@@H]1C[C@H]2C[C@H]2N1C(=O)Cn1nc(C(N)=O)c2ccncc21)[C@H]1CC1(Cl)Cl [Example 37, 1-(2-{(1R,3S,5R)-3-[(R)-1-((R)-2,2-Dichloro-cyclopropyl)-ethylcarbamoyl]-2-aza-bicyclo[3.1.0]hex-2-yl}-2-oxo-ethyl)-1H-pyrazolo[3,4-c]pyridine-3-carboxylic acid amide] | 11 nM
CC(=O)c1nn(CC(=O)N2[C@@H]3C[C@@H]3C[C@H]2C(=O)NC[C@H]2CC2(Cl)Cl)c2ncccc12 [Example 69, (1R,3S,5R)-2-[2-(3-Acetyl-pyrazolo[3,4-b]pyridin-1-yl)-acetyl]-2-aza-bicyclo[3.1.0] hexane-3-carboxylic acid ((R)-2,2-dichloro-cyclopropylmethyl)-amide] | 53 nM
C[C@@H](NC(=O)[C@@H]1C[C@H]2C[C@H]2N1C(=O)Nc1cn(C(N)=O)c2ccccc12)C1CCCCC1 [Example 28, (1R,3S,5R)-2-Aza-bicyclo[3.1.0]hexane-2,3-dicarboxylic acid 2-[(1-carbamoyl-1H-indol-3-yl)-amide] 3-[((R)-1-cyclohexyl-ethyl)-amide]] | 78 nM
Cc1cc2c(C(N)=O)nn(CC(=O)N3[C@@H]4C[C@@H]4C[C@H]3C(=O)N[C@H](C)[C@H]3CC3(Cl)Cl)c2cn1 [Example 38, 1-(2-{(1R,3S,5R)-3-[(R)-1-((R)-2,2-Dichloro-cyclopropyl)-ethylcarbamoyl]-2-aza-bicyclo[3.1.0]hex-2-yl}-2-oxo-ethyl)-5-methyl-1H-pyrazolo[3,4-c] pyridine-3-carboxylic acid amide] | 40 nM
CC(=O)c1nn(CC(=O)N2[C@@H]3C[C@@H]3C[C@H]2C(=O)NC[C@H]2CC2(Cl)Cl)c2ccc(OCc3nccc(C)n3)cc12 [Example 56, (1R,3S,5R)-2-{2-[3-Acetyl-5-(4-methyl-pyrimidin-2-ylmethoxy)-indazol-1-yl]-acetyl}-2-aza-bicyclo[3.1.0]hexane-3-carboxylic acid ((R)-2,2-dichloro-cyclopropylmethyl)-amide] | 8 nM
Cc1nccc2c(C(N)=O)nn(CC(=O)N3[C@@H]4C[C@@H]4C[C@H]3C(=O)NC[C@H]3CC3(Cl)Cl)c12 [Example 112, 1-(2-{(1R,3S,5R)-3-[((R)-2,2-Dichloro-cyclopropylmethyl)-carbamoyl]-2-aza-bicyclo[3.1.0]hex-2-yl}-2-oxo-ethyl)-7-methyl-1H-pyrazolo[3,4-c]pyridine-3-carboxylic acid amide] | 188 nM
CC(=O)c1nn(CC(=O)N2[C@@H]3C[C@@H]3C[C@H]2C(=O)NC[C@@H]2CC2(Cl)Cl)c2ncccc12 [Example 68, (1R,3S,5R)-2-[2-(3-Acetyl-pyrazolo[3,4-b]pyridin-1-yl)-acetyl]-2-aza-bicyclo[3.1.0] hexane-3-carboxylic acid ((S)-2,2-dichloro-cyclopropylmethyl)-amide] | 177 nM
CC(=O)c1nn(CC(=O)N2[C@@H]3C[C@@H]3C[C@H]2C(=O)NCC2CC2)c2ncccc12 [Example 1, (1R,3S,5R)-2-[2-(3-Acetyl-pyrazolo[3,4-b]pyridin-1-yl)-acetyl]-2-aza-bicyclo[3.1.0]hexane-3-carboxylic acid cyclopropylmethyl-amide] | 4790 nM
C[C@@]1(F)C[C@@H](C(=O)NC[C@H]2CC2(Cl)Cl)N(C(=O)Cn2nc(C(N)=O)c3ccccc32)C1 [Example 60, 1-(2-{(2S,4R)-2-[((R)-2,2-Dichloro-cyclopropylmethyl)-carbamoyl]-4-fluoro-4-methyl-pyrrolidin-1-yl}-2-oxo-ethyl)-1H-indazole-3-carboxylic acid amide] | 124 nM
CO[C@H]1[C@@H](C(=O)NC[C@H]2CC2(Cl)Cl)N(C(=O)Cn2nc(C(N)=O)c3ccc(Cl)cc32)C[C@@H]1F [Example 41, 6-Chloro-1-(2-{(2S,3S,4S)-2-[((R)-2,2-dichloro-cyclopropylmethyl)-carbamoyl]-4-fluoro-3-methoxy-pyrrolidin-1-yl}-2-oxo-ethyl)-1H-indazole-3-carboxylic acid amide] | 51 nM
CO[C@H]1[C@@H](C(=O)NC[C@H]2CC2(Cl)Cl)N(C(=O)Cn2nc(C(N)=O)c3ccccc32)C[C@@H]1F [Example 42, 1-(2-{(2S,3S,4S)-2-[((R)-2,2-Dichloro-cyclopropylmethyl)-carbamoyl]-4-fluoro-3-methoxy-pyrrolidin-1-yl}-2-oxo-ethyl)-1H-indazole-3-carboxylic acid amide] | 112 nM
CC1CCCC(CNC(=O)[C@@H]2C[C@H]3C[C@H]3N2C(=O)Nc2cn(C(N)=O)c3ccccc23)C1 (stereo partly drawn) [Example 29, (1R,3S,5R)-2-Aza-bicyclo [3.1.0]hexane-2,3-dicarboxylic acid 2-[(1-carbamoyl-1H-indol-3-yl)-amide] 3-[(3-methyl-cyclohexylmethyl)-amide]] | 46 nM
NC(=O)c1nn(CC(=O)N2[C@@H]3C[C@@H]3C[C@H]2C(=O)NC[C@H]2CC2(Cl)Cl)c2ccc(F)cc12 [Example 98, 1-(2-{(1R,3S,5R)-3-[((R)-2,2-Dichloro-cyclopropylmethyl)-carbamoyl]-2-aza-bicyclo[3.1.0]hex-2-yl}-2-oxo-ethyl)-5-fluoro-1H-indazole-3-carboxylic acid amide] | 248 nM
NC(=O)c1nn(CC(=O)N2[C@@H]3C[C@@H]3C[C@H]2C(=O)NC[C@@H]2CC2(Cl)Cl)c2cnccc12 [Example 71, 1-(2-{(1R,3S,5R)-3-[((S)-2,2-Dichloro-cyclopropylmethyl)-carbamoyl]-2-aza-bicyclo[3.1.0]hex-2-yl}-2-oxo-ethyl)-1H-pyrazolo[3,4-c]pyridine-3-carboxylic acid amide] | 136 nM

same assay, conditions: IC50, Factor D inhibition data using Method 1; recombinant human factor D 10 nM, substrate Z-Lys-thiobenzyl, fluorescence

Structure (SMILES) | IC50
CC1CCC(CNC(=O)[C@@H]2C[C@H]3C[C@H]3N2C(=O)Cn2nc(C(N)=O)c3ccccc32)C1 (single isomer, unassigned; dia 4) [Example 91] | 46 nM
CC(=O)c1nn(CC(=O)N2[C@@H]3C[C@@H]3C[C@H]2C(=O)NC(C)C2CC2(Cl)Cl)c2ccc(OCc3ncccn3)cc12 (single isomer, unassigned; dia 2) [Example 33] | 300 nM
CC1C(CNC(=O)[C@@H]2C[C@H]3C[C@H]3N2C(=O)Cn2nc(C(N)=O)c3ccncc32)C1(Cl)Cl (single isomer, unassigned; dia 2) [Example 80, 1-(2-{(1R,3S,5R)-3-[((1R,3S) or (1S,3R)-2,2-Dichloro-3-methyl-cyclopropylmethyl)-carbamoyl]-2-aza-bicyclo[3.1.0]hex-2-yl}-2-oxo-ethyl)-1H-pyrazolo[3,4-c]pyridine-3-carboxylic acid amide-Dia 2] | 98 nM
CC1CCC(CNC(=O)[C@@H]2C[C@H]3C[C@H]3N2C(=O)Cn2nc(C(N)=O)c3ccccc32)C1 (single isomer, unassigned; dia 2) [Example 90] | 53 nM
NC(=O)c1nn(CC(=O)N2[C@@H]3C[C@@H]3C[C@H]2C(=O)NC(CO)C2CC2(Cl)Cl)c2ccccc12 (single isomer, unassigned; dia 4) [Example 51] | 246 nM
NC(=O)c1nn(CC(=O)N2[C@@H]3C[C@@H]3C[C@H]2C(=O)NC(CO)C2CC2(Cl)Cl)c2ccccc12 (single isomer, unassigned; dia 1) [Example 23] | 1610 nM
